According to US20040106545A1, “Compounds and methods for modulating cell adhesion” (priority 1996, published 2004):
Several values for one entry are separate records, joined by “and”; a condition that tells them apart may be missing. Identical values can stand only once. Entries after “also recorded” stand apart in the source; their conditions may differ.

What was measured:
human skin = assay: Human skin permeability, Franz Cell apparatus
Method: Another cell adhesion assay involves evaluating the effect of a modulating agent on permeability of adherent epithelial and/or endothelial cell layers. For example, the effect on permeability of human skin may be evaluated. Such skin may be derived from a natural source or may be synthetic. Human abdominal skin for use in such assays may generally be obtained from humans at autopsy within 24 hours of death. Briefly, a cyclic peptide and a test marker (e.g., the fluorescent markers Oregon Green™ and Rhodamine Green™ Dextran) may be dissolved in a sterile buffer, and the ability of the marker to penetrate through the skin and into a receptor fluid may be measured using a Franz Cell apparatus (Franz, Curr. Prob. Dermatol. 7:58-68, 1978; Franz, J. Invest. Dermatol. 64:190-195, 1975). In general, a modulating agent that enhances the permeability of human skin results in a statistically significant increase in the amount of marker in the receptor compartment after 6-48 hours in the presence of 500 μg/mL modulating agent. This assay evaluates the effect of a modulating agent on E-cadherin mediated cell adhesion.
Abdominal skin from humans at autopsy within 24 hours of death was used in these assays. The effect of N—Ac-CHAVC-NH2 (SEQ ID NO:10) and N—Ac-CHGVC-NH2 (SEQ ID NO:11), used at a concentration of 500 μg/ml or 2.5 mg/ml, on the penetration of two fluorescent markers, Oregon Green 488 (charge −1, MW 386 daltons) and Rhodamine Green 3000 Dextran (no charge, MW 3000 daltons) through human skin was then evaluated utilizing a Franz Cell apparatus (Franz, Curr. Prob. Dermatol. 7:58-68, 1978; Franz, J. Invest. Dermatol. 64:190-195, 1975). The peptides and markers were dissolved in sterile phosphate buffer, pH 7.2, and phosphate buffer was used as the receptor fluid. 150 μl of solution containing 0.2 mg Oregon Green and 1.0 mg Rhodamine Green was used to evaluate 500 μg/ml peptide; 200 μl of solution containing 0.05 mg Oregon Green and 1.250 mg Rhodamine Green was used to evaluate 2.5 mg/ml peptide. The solution was placed on top of the epidermal side of the skin, and the penetration of the markers through the skin was assessed using a fluorescent spectrophotometric method (in a Perkin Elmer 650-105 Fluorescence Spectrophotometer, and comparing the reading to a standard curve) at 6, 12, 24, 36, and 48 hours after the start of the experiment. The fluorescent units were converted to a concentration unit of microgram/5 ml (volume of the receiver compartment) using a standard curve and regression analysis equations. The curve was linear for the concentrations tested for both markers (r^2=1 for OrG and 0.997 for RhG). For each peptide and marker combination, the experiment was performed in triplicate.

Melanoma ME115 cells = assay: Disruption of melanoma cell adhesion, pan-cadherin staining; type: cell-based, human; settings: 500 μg/mL, 48 hours
Method: Melanoma ME115 cells (kindly provided by Meenhard Herlyn, Wistar Institute, Philadelphia, Pa.) were plated on glass coverslips and cultured for 24 hours in 50% keratinocyte growth medium (Clonetics, San Diego, Calif.) and 50% L15. Fresh medium containing the cyclic peptides (final concentration 500 μg/mL media) N—Ac-CHAVC-NH2 (SEQ ID NO:10) or N—Ac-CHGVC-NH2 (SEQ ID NO:11) was then added. Following 24 hours of culture in the presence of the peptides, the medium was removed and fresh medium containing the peptides was added. The cells were fixed 24 hours later with cold methanol and stored in phosphate buffered saline (PBS).
Coverslips were blocked for 1 hour in 3% ovalbumin/PBS and incubated for a further 1 hour in the presence of rabbit pan-cadherin antibody (Sigma Chemical Co., St. Louis, Mo.) diluted 1:500. Primary and secondary antibodies were diluted in PBS containing 6% normal goat serum. Following incubation in the primary antibody, coverslips were washed 3 times for 5 minutes each in PBS and incubated for 1 hour in goat anti-rabbit immunoglobulin G conjugated to fluorescein (Kiekegard and Perry, South San Francisco, Calif.) diluted 1:100. Following a further wash in PBS (3×5 minutes) coverslips were mounted in Vectashield (Vector Labs, Burlingame, Calif.) and viewed with a Zeiss infinity corrected microscope.

[1] = test system: SKOV3 human ovarian cancer cells; assay: Induction of apoptosis in SKOV3 cancer cells, in situ cell death detection; type: cell-based; settings: 0.5 or 0.25 mg/mL, 48 hours
Method: Direct assays of induction of apoptosis may be performed using any standard technique. For example, cadherin-expressing cells (e.g., SKOV3 human ovarian cancer cells) may be plated onto poly-L-lysine coated glass slides and cultured with 500 μg/mL of modulating agent for 24-48 hours. Cells may then be fixed and assayed for cell death using any of a variety of well known methods. For example, an in situ cell death detection kit may be purchased from Boehringer Mannheim (Laval, Quebec) and used according to the manufacturer's instructions.
SKOV3 human ovarian cancer cells cultured in the presence of either N—Ac-CHAVC-NH2 (SEQ ID NO:10) or a control peptide (N—Ac-CHGVC-NH2; SEQ ID NO:11) in MEM with 10% FBS were plated onto poly-L-lysine coated glass slides. The cells were cultured for 24 or 48 hours and fixed with 4% paraformaldehyde for 30 minutes at room temperature. The slides were then washed three times with PBS and assessed for cell death. Cells were treated with 0.5 or 0.25 mg/mL of N—Ac-CHAVC-NH2 (SEQ ID NO:10) or the control N—Ac-CHGVC-NH2 (SEQ ID NO:11), as indicated. Cell death was measured as described by Gavrieli et al, J. Cell. Biol. 119:493-501, 1992 and using the In situ cell death detection kit (Boehringer Mannheim; Laval, Quebec).

[2] = 500 μg/ml Peptide, t = 6 hours, Mean
[3] = 500 μg/ml Peptide, t = 6 hours, single replicates, listed as Sample#1
[4] = 500 μg/ml Peptide, t = 12 hours, Mean
[5] = 500 μg/ml Peptide, t = 12 hours, single replicates, listed as Sample#1
[6] = 500 μg/ml Peptide, t = 24 hours, Mean
[7] = 500 μg/ml Peptide, t = 24 hours, single replicates, listed as Sample#1
[8] = 500 μg/ml Peptide, t = 36 hours, Mean
[9] = 500 μg/ml Peptide, t = 36 hours, single replicates, listed as Sample#1
[10] = 500 μg/ml Peptide, t = 48 hours, Mean
[11] = 500 μg/ml Peptide, t = 48 hours, single replicates, listed as Sample#1
[12] = 2.5 mg/ml Peptide, t = 6 hours, Mean
[13] = 2.5 mg/ml Peptide, t = 6 hours, single replicates, listed as Sample#1
[14] = 2.5 mg/ml Peptide, t = 12 hours, Mean
[15] = 2.5 mg/ml Peptide, t = 12 hours, single replicates, listed as Sample#1
[16] = 2.5 mg/ml Peptide, t = 24 hours, Mean
[17] = 2.5 mg/ml Peptide, t = 24 hours, single replicates, listed as Sample#1
[18] = 2.5 mg/ml Peptide, t = 36 hours, Mean
[19] = 2.5 mg/ml Peptide, t = 36 hours, single replicates, listed as Sample#1
[20] = 2.5 mg/ml Peptide, t = 48 hours, Mean
[21] = 2.5 mg/ml Peptide, t = 48 hours, single replicates, listed as Sample#1

## CC(=O)N[C@H]1CSSC[C@@H](C(N)=O)NC(=O)[C@H](C(C)C)NC(=O)[C@H](C)NC(=O)[C@H](Cc2c[nH]cn2)NC1=O [N—Ac—CHAVC—NH2, N-Ac-Cys-His-Ala-Val-Cys-NH2]
Human skin; 500 μg/ml
  penetration of Oregon Green through the skin, compared to control peptide: slightly increased the penetration of Oregon Green through the skin
  penetration of Rhodamine Green through the skin, compared to control peptide: significantly increased
Human skin; [2]
  Percutaneous absorption concentration for Dextran Rhodamine Green 3000: 0.8 mg/5ml
  Percutaneous absorption concentration for Oregon Green 488: 0.084 mg/5ml
Human skin; [3]
  Percutaneous absorption concentration for Dextran Rhodamine Green 3000: 0.4 mg/5ml and 0.8 mg/5ml and 1.2 mg/5ml
  Percutaneous absorption concentration for Oregon Green 488: 0.028 mg/5ml and 0.167 mg/5ml and 0.058 mg/5ml
Human skin; [4]
  Percutaneous absorption concentration for Dextran Rhodamine Green 3000: 3.52 mg/5ml
  Percutaneous absorption concentration for Oregon Green 488: 0.225 mg/5ml
Human skin; [5]
  Percutaneous absorption concentration for Dextran Rhodamine Green 3000: 3.0 mg/5ml and 2.0 mg/5ml and 5.556 mg/5ml
  Percutaneous absorption concentration for Oregon Green 488: 0.096 mg/5ml and 0.322 mg/5ml and 0.352 mg/5ml
Human skin; [6]
  Percutaneous absorption concentration for Dextran Rhodamine Green 3000: 11.15 mg/5ml
  Percutaneous absorption concentration for Oregon Green 488: 0.780 mg/5ml
Human skin; [7]
  Percutaneous absorption concentration for Dextran Rhodamine Green 3000: 16.174 mg/5ml and 4.074 mg/5ml and 13.158 mg/5ml
  Percutaneous absorption concentration for Oregon Green 488: 0.470 mg/5ml and 1.096 mg/5ml and 0.773 mg/5ml
Human skin; [8]
  Percutaneous absorption concentration for Dextran Rhodamine Green 3000: 14.72 mg/5ml
  Percutaneous absorption concentration for Oregon Green 488: 1.00 mg/5ml
Human skin; [9]
  Percutaneous absorption concentration for Dextran Rhodamine Green 3000: 21.044 mg/5ml and 5.556 mg/5ml and 17.565 mg/5ml
  Percutaneous absorption concentration for Oregon Green 488: 0.544 mg/5ml and 1.56 mg/5ml and 0.902 mg/5ml
Human skin; [10]
  Percutaneous absorption concentration for Dextran Rhodamine Green 3000: 20.02 mg/5ml
  Percutaneous absorption concentration for Oregon Green 488: 1.120 mg/5ml
Human skin; [11]
  Percutaneous absorption concentration for Dextran Rhodamine Green 3000: 25.747 mg/5ml and 6.481 mg/5ml and 27.826 mg/5ml
  Percutaneous absorption concentration for Oregon Green 488: 0.665 mg/5ml and 1.725 mg/5ml and 0.971 mg/5ml
Human skin; 2.5 mg/ml
  penetration of Oregon Green through the skin, compared to control peptide: increased the penetration of Oregon Green through the skin
  penetration of Rhodamine Green through the skin, compared to control peptide: significantly increased
Human skin; [12]
  Percutaneous absorption concentration for Dextran Rhodamine Green 3000: 12.66 mg/5ml
  Percutaneous absorption concentration for Oregon Green 488: 0.14 mg/5ml
Human skin; [13]
  Percutaneous absorption concentration for Dextran Rhodamine Green 3000: 24.52 mg/5ml and 2.4 mg/5ml and 11.05 mg/5ml
  Percutaneous absorption concentration for Oregon Green 488: 0.14 mg/5ml and 0.11 mg/5ml and 0.16 mg/5ml
Human skin; [14]
  Percutaneous absorption concentration for Dextran Rhodamine Green 3000: 31.47 mg/5ml
  Percutaneous absorption concentration for Oregon Green 488: 0.40 mg/5ml
Human skin; [15]
  Percutaneous absorption concentration for Dextran Rhodamine Green 3000: 45.35 mg/5ml and 25.22 mg/5ml and 23.83 mg/5ml
  Percutaneous absorption concentration for Oregon Green 488: 0.44 mg/5ml and 0.32 mg/5ml and 0.45 mg/5ml
Human skin; [16]
  Percutaneous absorption concentration for Dextran Rhodamine Green 3000: 48.78 mg/5ml
  Percutaneous absorption concentration for Oregon Green 488: 0.54 mg/5ml
Human skin; [17]
  Percutaneous absorption concentration for Dextran Rhodamine Green 3000: 66.28 mg/5ml and 35.22 mg/5ml and 44.85 mg/5ml
  Percutaneous absorption concentration for Oregon Green 488: 0.67 mg/5ml and 0.33 mg/5ml and 0.63 mg/5ml
Human skin; [18]
  Percutaneous absorption concentration for Dextran Rhodamine Green 3000: 71.28 mg/5ml
  Percutaneous absorption concentration for Oregon Green 488: 0.88 mg/5ml
Human skin; [19]
  Percutaneous absorption concentration for Dextran Rhodamine Green 3000: 120.0 mg/5ml and 42.36 mg/5ml and 51.50 mg/5ml
  Percutaneous absorption concentration for Oregon Green 488: 0.76 mg/5ml and 0.88 mg/5ml and 0.99 mg/5ml
Human skin; [20]
  Percutaneous absorption concentration for Dextran Rhodamine Green 3000: 133.56 mg/5ml
  Percutaneous absorption concentration for Oregon Green 488: 0.82 mg/5ml
Human skin; [21]
  Percutaneous absorption concentration for Dextran Rhodamine Green 3000: 146.79 mg/5ml and 47.00 mg/5ml and 60.1 mg/5ml
  Percutaneous absorption concentration for Oregon Green 488: 0.83 mg/5ml and 0.56 mg/5ml and 1.06 mg/5ml
Melanoma ME115 cells
  cadherin staining of ME115 cells: cadherin is localized in intracellular vesicles; also recorded: absence of cell membrane staining and the appearance of bright intracellular vesicular staining
  melanoma cell adhesion: disrupts melanoma cell adhesion
[1]
  cell death of SKOV3 cells: fluorescent green nuclei in FIGS. 35C and 35D indicate cell death; also recorded: can cause human ovarian cancer cell death
